Read-outs that look alike come from different tables or passages of the source. Starred links: 1 amine or outer side, 2 acyl side, 3 side chain; linkers in the order of their positions; H or OH if unused. Non-standard residues stand in square brackets, D forms with d. Residues, ends and D or L forms follow the SMILES beside them. Groups on a side chain read outwards from the residue. *: point of attachment. C20 diacid = O=C(O)CCCCCCCCCCCCCCCCCCC(=O)*; C18 diacid = O=C(O)CCCCCCCCCCCCCCCCC(=O)*; γGlu = O=C(O)[C@H](CCC(=O)[*:2])N[*:1]; εLys = N[C@@H](CCCCN[*:1])C(=O)[*:2]; Aib = CC(C)(N)C(=O)O
Assays:
human GLP-1 receptor = human GLP-1 receptor (Homo sapiens, UniProt P43220); experiment: In vitro functional potency, CRE luciferase reporter, whole BHK cells (hGLP-1R); format: cell-based; design: expressed in transfected cells; host or cells: BHK (parent line BHKTS13), clone BHK CRE luc2P hGLP-1R; conditions: BHK CRE luc2P hGLP-1R cells
In short: (§1)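 Potencies are replicate means (n≥2) from non-linear log(agonist) vs response fits of CRE-driven luminescence. Cells were overnight-plated BHK CRE luc2P lines transfected with human GIPR or GLP-1R, 5000/well.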

human GIP receptor = target: T1, human GIP receptor (Homo sapiens, UniProt P48546); experiment: In vitro functional potency, CRE luciferase reporter, whole BHK cells (hGIPR); format: cell-based; conditions: BHK CRE luc2P hGIPR cells
T1 construct: expressed in transfected cells; host or cells: BHK (parent line BHKTS13), clone BHK CRE luc2P hGIPR
T1 sequence (P48546 22-466): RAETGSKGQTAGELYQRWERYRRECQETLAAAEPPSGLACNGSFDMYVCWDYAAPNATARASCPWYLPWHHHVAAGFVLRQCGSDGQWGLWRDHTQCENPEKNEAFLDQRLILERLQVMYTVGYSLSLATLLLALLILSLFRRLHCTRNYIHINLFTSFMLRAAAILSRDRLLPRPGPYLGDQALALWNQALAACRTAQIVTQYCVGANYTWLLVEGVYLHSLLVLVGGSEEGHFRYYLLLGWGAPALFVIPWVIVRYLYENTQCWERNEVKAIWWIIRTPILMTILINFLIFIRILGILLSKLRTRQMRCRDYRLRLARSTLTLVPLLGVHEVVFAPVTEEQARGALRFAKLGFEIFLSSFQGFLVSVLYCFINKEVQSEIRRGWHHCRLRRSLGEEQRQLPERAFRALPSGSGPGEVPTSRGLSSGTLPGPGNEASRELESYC
In short: as §1

[1] = 0% HSA, read-out: hGLP-1R, CRE Luc 0% HSA EC50
[2] = hGLP-1R, CRE Luc 1% HSA EC50, 1% HSA
[3] = 0% HSA, read-out: hGIPR, CRE Luc 0% HSA EC50
[4] = hGIPR, CRE Luc 1% HSA EC50, 1% HSA

Chain of human GLP-1 receptor (P43220 24-463): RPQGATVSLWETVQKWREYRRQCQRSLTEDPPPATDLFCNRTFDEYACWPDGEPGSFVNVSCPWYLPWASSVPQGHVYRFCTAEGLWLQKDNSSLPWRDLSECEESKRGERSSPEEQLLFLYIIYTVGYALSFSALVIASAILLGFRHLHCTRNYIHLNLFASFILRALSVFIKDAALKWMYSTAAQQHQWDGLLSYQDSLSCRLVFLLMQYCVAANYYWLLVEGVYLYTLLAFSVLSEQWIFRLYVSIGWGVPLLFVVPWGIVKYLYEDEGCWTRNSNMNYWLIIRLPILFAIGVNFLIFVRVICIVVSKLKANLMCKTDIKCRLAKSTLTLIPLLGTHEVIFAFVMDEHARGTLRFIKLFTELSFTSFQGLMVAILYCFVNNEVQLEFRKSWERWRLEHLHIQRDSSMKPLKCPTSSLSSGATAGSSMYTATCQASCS

## CC[C@H](C)[C@H](NC(=O)[C@H](Cc1ccccc1)NC(=O)[C@H](CCC(=O)O)NC(=O)[C@H](CCCNC(=N)N)NC(=O)[C@H](C)NC(=O)[C@H](C)NC(=O)[C@H](CCC(N)=O)NC(=O)[C@H](CCCCNC(=O)[C@@H](N)CCCCNC(=O)[C@@H](N)CCCCNC(=O)CC[C@H](NC(=O)CCCCCCCCCCCCCCCCC(=O)O)C(=O)O)NC(=O)[C@H](CCC(=O)O)NC(=O)[C@H](CC(C)C)NC(=O)[C@H](CC(C)C)NC(=O)[C@@H](NC(=O)[C@H](CO)NC(=O)[C@H](Cc1ccc(O)cc1)NC(=O)[C@H](CC(=O)O)NC(=O)[C@H](CO)NC(=O)[C@@H](NC(=O)[C@H](Cc1ccccc1)NC(=O)[C@@H](NC(=O)CNC(=O)[C@H](CCC(=O)O)NC(=O)C(C)(C)NC(=O)[C@@H](N)Cc1ccc(O)cc1)[C@@H](C)O)[C@@H](C)O)[C@@H](C)CC)C(=O)N[C@@H](CCC(=O)O)C(=O)N[C@@H](Cc1c[nH]c2ccccc12)C(=O)N[C@@H](CC(C)C)C(=O)N[C@@H](CC(C)C)C(=O)N[C@@H](CCCNC(=N)N)C(=O)NCC(=O)NCC(=O)N1CCC[C@H]1C(=O)N[C@@H](CO)C(=O)N[C@@H](CO)C(=O)NCC(=O)N[C@@H](C)C(=O)N1CCC[C@H]1C(=O)N1CCC[C@H]1C(=O)N1CCC[C@H]1C(=O)N[C@@H](CO)C(=O)O [Compound 27] (H-Y[Aib]EGTFTSDYSILLEK([εLys-εLys-γGlu-C18 diacid])QAAREFIEWLLRGGPSSGAPPPS-OH)
Human GLP-1 receptor; [1]
  EC50: 0.0046 nM
Human GLP-1 receptor; [2]
  EC50: 0.127 nM
Human GIP receptor; [3]
  EC50: 0.0063 nM
Human GIP receptor; [4]
  EC50: 0.132 nM

## CC(C)C[C@H](NC(=O)[C@H](CC(C)C)NC(=O)[C@H](Cc1c[nH]c2ccccc12)NC(=O)[C@H](CC(N)=O)NC(=O)[C@@H](NC(=O)[C@H](Cc1ccccc1)NC(=O)[C@H](CCC(=O)O)NC(=O)[C@H](CCC(N)=O)NC(=O)[C@H](C)NC(=O)[C@H](C)NC(=O)[C@H](CCC(N)=O)NC(=O)[C@H](CCCCNC(=O)[C@@H](N)CCCCNC(=O)[C@@H](N)CCCCNC(=O)CC[C@H](NC(=O)CCCCCCCCCCCCCCCCCCC(=O)O)C(=O)O)NC(=O)[C@H](CCC(=O)O)NC(=O)[C@H](CC(C)C)NC(=O)[C@H](Cc1ccc(O)cc1)NC(=O)[C@H](Cc1ccc(O)cc1)NC(=O)[C@H](CO)NC(=O)[C@H](Cc1ccc(O)cc1)NC(=O)[C@H](CC(=O)O)NC(=O)[C@H](CO)NC(=O)[C@@H](NC(=O)[C@H](Cc1ccccc1)NC(=O)[C@@H](NC(=O)CNC(=O)[C@H](CCC(=O)O)NC(=O)C(C)(C)NC(=O)[C@@H](N)Cc1ccc(O)cc1)[C@@H](C)O)[C@@H](C)O)C(C)C)C(=O)N[C@@H](C)C(=O)NCC(=O)NCC(=O)N1CCC[C@H]1C(=O)N[C@@H](CO)C(=O)N[C@@H](CO)C(=O)NCC(=O)N[C@@H](C)C(=O)N1CCC[C@H]1C(=O)N1CCC[C@H]1C(=O)N1CCC[C@H]1C(=O)N[C@@H](CO)C(N)=O [Compound 2] (H-Y[Aib]EGTFTSDYSYYLEK([εLys-εLys-γGlu-C20 diacid])QAAQEFVNWLLAGGPSSGAPPPS-NH2)
Human GLP-1 receptor; [1]
  EC50: 0.006 nM
Human GLP-1 receptor; [2]
  EC50: 0.9 nM
Human GIP receptor; [3]
  EC50: 0.0038 nM
Human GIP receptor; [4]
  EC50: 0.275 nM

## CC[C@H](C)[C@H](NC(=O)[C@H](Cc1ccccc1)NC(=O)[C@H](CCC(=O)O)NC(=O)[C@H](CCCNC(=N)N)NC(=O)[C@H](C)NC(=O)[C@H](C)NC(=O)[C@H](CCC(N)=O)NC(=O)[C@H](CCC(=O)O)NC(=O)[C@H](CCC(=O)O)NC(=O)[C@H](CC(C)C)NC(=O)[C@H](Cc1ccc(O)cc1)NC(=O)[C@H](CCCCNC(=O)[C@@H](N)CCCCNC(=O)[C@@H](N)CCCCNC(=O)CC[C@H](NC(=O)CCCCCCCCCCCCCCCCC(=O)O)C(=O)O)NC(=O)[C@H](CO)NC(=O)[C@H](Cc1ccc(O)cc1)NC(=O)[C@H](CC(=O)O)NC(=O)[C@H](CO)NC(=O)[C@@H](NC(=O)[C@H](Cc1ccccc1)NC(=O)[C@@H](NC(=O)CNC(=O)[C@H](CCC(=O)O)NC(=O)C(C)(C)NC(=O)[C@@H](N)Cc1ccc(O)cc1)[C@@H](C)O)[C@@H](C)O)C(=O)N[C@@H](CC(N)=O)C(=O)N[C@@H](Cc1c[nH]c2ccccc12)C(=O)N[C@@H](CC(C)C)C(=O)N[C@@H](CC(C)C)C(=O)N[C@@H](C)C(=O)NCC(=O)NCC(=O)N1CCC[C@H]1C(=O)N[C@@H](CO)C(=O)N[C@@H](CO)C(=O)NCC(=O)N[C@@H](C)C(=O)N1CCC[C@H]1C(=O)N1CCC[C@H]1C(=O)N1CCC[C@H]1C(=O)N[C@@H](CO)C(=O)O [Compound 41]
Human GLP-1 receptor; [1]
  EC50: 0.0012 nM
Human GLP-1 receptor; [2]
  EC50: 0.0314 nM
Human GIP receptor; [3]
  EC50: 0.0049 nM
Human GIP receptor; [4]
  EC50: 0.0793 nM

## CC[C@H](C)[C@H](NC(=O)[C@H](Cc1ccccc1)NC(=O)[C@H](CCC(=O)O)NC(=O)[C@H](CCCNC(=N)N)NC(=O)[C@H](C)NC(=O)[C@H](C)NC(=O)[C@H](CCC(N)=O)NC(=O)[C@H](CCCCNC(=O)[C@@H](N)CCCCNC(=O)[C@@H](N)CCCCNC(=O)CC[C@H](NC(=O)CCCCCCCCCCCCCCCCC(=O)O)C(=O)O)NC(=O)[C@H](CCC(=O)O)NC(=O)[C@H](CC(C)C)NC(=O)[C@H](CC(C)C)NC(=O)[C@@H](NC(=O)[C@H](CO)NC(=O)[C@H](Cc1ccc(O)cc1)NC(=O)[C@H](CC(=O)O)NC(=O)[C@H](CO)NC(=O)[C@@H](NC(=O)[C@@H](NC(=O)[C@@H](NC(=O)CNC(=O)[C@H](CCC(=O)O)NC(=O)C(C)(C)NC(=O)[C@@H](N)Cc1ccc(O)cc1)[C@@H](C)O)C(C)C)[C@@H](C)O)[C@@H](C)CC)C(=O)N[C@@H](CC(N)=O)C(=O)N[C@@H](Cc1c[nH]c2ccccc12)C(=O)N[C@@H](CC(C)C)C(=O)N[C@@H](CC(C)C)C(=O)N[C@@H](C)C(=O)NCC(=O)NCC(=O)N1CCC[C@H]1C(=O)N[C@@H](CO)C(=O)N[C@@H](CO)C(=O)NCC(=O)N[C@@H](C)C(=O)N1CCC[C@H]1C(=O)N1CCC[C@H]1C(=O)N1CCC[C@H]1C(=O)N[C@@H](CO)C(=O)O [Compound 33] (H-Y[Aib]EGTVTSDYSILLEK([εLys-εLys-γGlu-C18 diacid])QAAREFINWLLAGGPSSGAPPPS-OH)
Human GLP-1 receptor; [1]
  EC50: 0.0148 nM
Human GLP-1 receptor; [2]
  EC50: 0.361 nM
Human GIP receptor; [3]
  EC50: 0.0029 nM
Human GIP receptor; [4]
  EC50: 0.103 nM

## CC[C@H](C)[C@H](NC(=O)[C@H](Cc1ccccc1)NC(=O)[C@H](CCC(=O)O)NC(=O)[C@H](CCCNC(=N)N)NC(=O)[C@H](C)NC(=O)[C@H](C)NC(=O)[C@H](CCC(N)=O)NC(=O)[C@H](CCCCNC(=O)[C@@H](N)CCCCNC(=O)[C@@H](N)CCCCNC(=O)CC[C@H](NC(=O)CCCCCCCCCCCCCCCCC(=O)O)C(=O)O)NC(=O)[C@H](CCC(=O)O)NC(=O)[C@H](CC(C)C)NC(=O)[C@@H](NC(=O)[C@@H](NC(=O)[C@H](CO)NC(=O)[C@H](Cc1ccc(O)cc1)NC(=O)[C@H](CC(=O)O)NC(=O)[C@H](CO)NC(=O)[C@@H](NC(=O)[C@H](Cc1ccccc1)NC(=O)[C@@H](NC(=O)CNC(=O)[C@H](CCC(=O)O)NC(=O)C(C)(C)NC(=O)[C@@H](N)Cc1ccc(O)cc1)[C@@H](C)O)[C@@H](C)O)[C@@H](C)CC)[C@@H](C)CC)C(=O)N[C@@H](CC(N)=O)C(=O)N[C@@H](Cc1c[nH]c2ccccc12)C(=O)N[C@@H](CC(C)C)C(=O)N[C@@H](CC(C)C)C(=O)N[C@@H](C)C(=O)NCC(=O)NCC(=O)N1CCC[C@H]1C(=O)N[C@@H](CO)C(=O)N[C@@H](CO)C(=O)NCC(=O)N[C@@H](C)C(=O)N1CCC[C@H]1C(=O)N1CCC[C@H]1C(=O)N1CCC[C@H]1C(=O)N[C@@H](CO)C(=O)O [Compound 34] (H-Y[Aib]EGTFTSDYSIILEK([εLys-εLys-γGlu-C18 diacid])QAAREFINWLLAGGPSSGAPPPS-OH)
Human GLP-1 receptor; [1]
  EC50: 0.006 nM
Human GLP-1 receptor; [2]
  EC50: 0.186 nM
Human GIP receptor; [3]
  EC50: 0.0083 nM
Human GIP receptor; [4]
  EC50: 0.213 nM

Source: patent US20220177538A1, “CO-AGONISTS AT GLP-1 AND GIP RECEPTORS SUITABLE FOR ORAL DELIVERY” (Novo Nordisk A/S, priority 2020, published 2022)
